The target in series [1] is T1, Nuclear factor erythroid 2-related factor 2 (Homo sapiens) (UniProt Q16236).
T1 sequence (whole entry): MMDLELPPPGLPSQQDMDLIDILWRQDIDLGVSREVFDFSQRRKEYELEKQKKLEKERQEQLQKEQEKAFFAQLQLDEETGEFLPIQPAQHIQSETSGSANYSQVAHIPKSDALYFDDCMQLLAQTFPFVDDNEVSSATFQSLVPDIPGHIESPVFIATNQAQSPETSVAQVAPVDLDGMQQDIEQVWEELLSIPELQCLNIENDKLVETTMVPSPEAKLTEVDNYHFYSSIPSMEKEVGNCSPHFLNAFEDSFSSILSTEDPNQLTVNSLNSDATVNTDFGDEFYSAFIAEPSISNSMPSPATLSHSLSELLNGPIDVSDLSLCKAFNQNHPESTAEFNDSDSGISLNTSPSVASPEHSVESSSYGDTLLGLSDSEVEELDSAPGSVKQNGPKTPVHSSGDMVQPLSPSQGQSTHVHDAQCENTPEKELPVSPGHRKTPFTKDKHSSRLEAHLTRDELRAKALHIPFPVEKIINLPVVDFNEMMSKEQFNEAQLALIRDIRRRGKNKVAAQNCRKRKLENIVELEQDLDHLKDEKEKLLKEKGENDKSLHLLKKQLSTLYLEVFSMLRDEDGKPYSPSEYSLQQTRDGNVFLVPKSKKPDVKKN
Put plainly: Activation of Nrf2 in human HaCaT cells transfected with ARE-luciferase containing ARE consensus sequence assessed as Nrf2 binding to ARE at 20 uM after 6 hrs by luciferase reporter gene assay. Format: cell-based. On the technique in general: A reporter such as luciferase makes a cellular process visible.

Series [2] relates to HaCaT. Briefly: Cytotoxicity against human HaCaT cells assessed as reduction in cell viability at 5 to 20 uM after 24 to 48 hrs by WST-8 assay. In kind it is cell-based. (In general: Tetrazolium assays rely on reduction of a dye to a coloured formazan, in cell work by metabolically active cells.)
For series [3], the system named is HaCaT. Put plainly: Cytoprotective activity against H2O2-induced cell damage in human HaCaT cells assessed as cell survival preincubated for 20 hrs followed by H2O2 addition measured after 4 hrs by WST-8 assay. In kind it is functional, cell-based.
For series [4], the target named is T1, Nuclear factor erythroid 2-related factor 2 (Homo sapiens). Briefly: Activation of Nrf2 in human HaCaT cells assessed as increase in HO-1 expression level after 12 hrs by Western blot analysis. Format: cell-based. For orientation: Immunoblotting shows a protein as a band on a membrane.
For series [5] the target is unchanged. Put plainly: Activation of Nrf2 in human HaCaT cells assessed as increase in HO-1 expression level at 20 uM by Western blot analysis. Format: cell-based. To be noted: TDE = time-dependent effect.
Series [6] has the same target. Briefly: Activation of Nrf2 in human HaCaT cells assessed as increase in HO-1 mRNA expression after 12 hrs by RT-qPCR analysis. Format: cell-based.
Series [7] shares this target. Put plainly: Activation of Nrf2 in human HaCaT cells assessed as increase in HO-1 mRNA expression at 20 uM by Western blot analysis. Format: cell-based. The note with it: TDE = time-dependent effect.
For series [8], the target named is T2, MAP kinase p38 (Homo sapiens) (UniProt O15264+Q15759+Q16539+P53778). Briefly: Activation of MAPK p38 in human HaCaT cells assessed as upregulation of Nrf2 mRNA expression at 20 uM measured up to 6 hrs RT-qPCR analysis. In kind it is cell-based.
The target of series [9] is T2, MAP kinase p38 (Homo sapiens). Put plainly: Activation of MAPK p38 in human HaCaT cells assessed as upregulation of Nrf2 mRNA expression measured up to 6 hrs RT-qPCR analysis. In kind it is cell-based.
Series [10] has the same target. Briefly: Activation of MAPK p38 in human HaCaT cells assessed as nuclear translocation of Nrf2 at 10 uM measured after 6 hrs Western blot analysis. In kind it is cell-based.
Series [11] shares this target. Briefly: Activation of MAPK p38 in human HaCaT cells assessed as nuclear translocation of Nrf2 at 20 uM after 6 hrs by DAPI staining-based immunofluorescence microscopic method. In kind it is cell-based.
Series [12] shares this target. Briefly: Activation of MAPK p38 in human HaCaT cells assessed as nuclear translocation of Nrf2 measured after 6 hrs by Western blot analysis. Format: cell-based.
In series [13] the test system is HaCaT. Briefly: Induction of ARE promoter activity in human HaCaT cells transfected with Nrf2-siRNA at 5 to 20 uM after 6 hrs by luciferase reporter gene assay. Format: functional, cell-based.
The test system of series [14] is HaCaT. Put plainly: Upregulation of HO-1 protein expression in human HaCaT cells transfected with Nrf2-siRNA at 20 uM after 6 hrs by Western blot analysis. Format: functional, cell-based.
Series [15] concerns HaCaT. Briefly: Upregulation of Nrf2 protein expression in human HaCaT cells transfected with Nrf2-siRNA at 20 uM after 6 hrs by Western blot analysis. In kind it is functional, cell-based.
In series [16] the target is T2, MAP kinase p38 (Homo sapiens). Put plainly: Induction of MAPK p38 phosphorylation in human HaCaT cells at 20 uM up to 6 hrs by Western blot analysis. In kind it is cell-based.
Series [17] has the same target. Briefly: Induction of MAPK p38 phosphorylation in human HaCaT cells at 20 uM after 2 hrs in presence of MAPK p38 inhibitor SB239063 by Western blot analysis. In kind it is cell-based.
A further series concerns PC-9. Put plainly: Cytotoxicity against human PC9 cells at 10 uM. Format: functional, cell-based.
A further series relates to HepG2. Put plainly: Cytotoxicity against human HepG2 cells at 10 uM. Format: functional, cell-based.
The next series relates to A549. Put plainly: Cytotoxicity against human A549 cells at 10 uM. In kind it is functional, cell-based.
For series [18], the target named is T2, MAP kinase p38 (Homo sapiens). Put plainly: Activation of MAPK p38 in human HaCaT cells assessed as upregulation of Nrf2 protein expression in nucleus at 20 uM after 6 hrs in presence of MAPK p38 inhibitor SB239063 by Western blot analysis. Format: cell-based.
Series [19] has as its target T1, Nuclear factor erythroid 2-related factor 2 (Homo sapiens). Put plainly: Activation of Nrf2 in human HaCaT cells assessed as upregulation of HO-1 protein expression at 20 uM after 12 hrs in presence of MAPK p38 inhibitor SB239063 by Western blot analysis. Format: cell-based.

Calls of active or inactive are those of the source. No cut-off for these calls is given here.

As for `COc1ccc2cc(N(C)C(=O)C3=NO[C@H]4[C@H](O)C=C[C@@H](Cl)[C@@]4(O)C3)c(=O)oc2c1OC`, the result (in series [1]; in series [8]; in [10]; in series [11]; in series [16]; in the series with PC-9) was Active. In addition, the outcome with HepG2 and in the series on A549 was Active. The Activity entry was “Non-Toxic” in the series on HaCaT [2]; “Dose-dependent effect” in the series with HaCaT [3]; “Dose-dependent effect” in series [4]; “Tde” in series [5]; “Dose-dependent effect” in series [6]; “Tde” in [7]. For the same molecule, the Activity entry in series [9] and in series [12] was “Dose-dependent effect” in each case. Moreover, the result (in the series on HaCaT [13]; with HaCaT [14]; with HaCaT [15]; in series [17]; in [18]; in [19]) was inactive.

For the molecule `COc1ccc2cc(NC(=O)C3=NO[C@H]4[C@H](O)C=C[C@@H](Cl)[C@@]4(O)C3)c(=O)oc2c1OC`, the result with PC-9, in the series on HepG2 and with A549 was Active.

The values above are taken from ChEMBL document CHEMBL4177697, “N-Me-trichodermamide B isolated from Penicillium janthinellum, with antioxidant properties through Nrf2-mediated signaling pathway” (Bioorg Med Chem, 2017).
